Data reported in article PMC4030970, “Structural Evidence for the Tetrameric Assembly of Chemokine CCL11 and the Glycosaminoglycan Arixtra™” (Biomolecules, 2013).

Legend:
CCL11 (Eotaxin-1) = molecular target: T1, CCL11 (Eotaxin-1) (Homo sapiens, UniProt P51671); assay: isothermal titration calorimetry; assay type: binding
T1 construct: mature wild-type CCL11; monomer mass about 8360 Da from m/z; monomer-dimer-tetramer mixture

CCL2 = molecular target: T2, CCL2 (Homo sapiens, UniProt P13500); assay: isothermal titration calorimetry; assay type: binding
T2 construct: construct and preparation not described in the main text; monomer-dimer, tetramer with saturating GAG
T2 sequence (P13500 24-99): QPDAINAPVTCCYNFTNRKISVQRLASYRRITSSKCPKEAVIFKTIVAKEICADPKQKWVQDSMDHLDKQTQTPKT

T1 sequence (P51671 24-97): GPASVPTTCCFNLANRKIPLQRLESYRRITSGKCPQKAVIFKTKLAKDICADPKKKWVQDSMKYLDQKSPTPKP

CO[C@H]1O[C@H](COS(=O)(=O)O)[C@@H](O[C@@H]2O[C@@H](C(=O)O)[C@@H](O[C@H]3O[C@H](COS(=O)(=O)O)[C@@H](O[C@@H]4O[C@H](C(=O)O)[C@@H](O[C@H]5O[C@H](COS(=O)(=O)O)[C@@H](O)[C@H](O)[C@H]5NS(=O)(=O)O)[C@H](O)[C@H]4O)[C@H](OS(=O)(=O)O)[C@H]3NS(=O)(=O)O)[C@H](O)[C@H]2OS(=O)(=O)O)[C@H](O)[C@H]1NS(=O)(=O)O [Arixtra]
Kd (CCL11 (Eotaxin-1)): 2.71 ± 0.284 µM | Kd (CCL2): 7.98 ± 0.77 µM
